{"source": "patent US8785184B2", "about": "“Differentiation of human embryonic stem cells” (Janssen Biotech, Inc., priority 2009, dated 2014)", "molecules": {"B1": {"name": "activin B (protein, UniProt P09529 293-407, looked up)", "Inhibin beta B chain": "GLECDGRTNLCCRQQFFIDFRLIGWNDWIIAPTGYYGNYCEGSCPAYLAGVPGSASSFHTAVVNQYRMRGLNPGTVNSCCIPTKLSTMSMLYFDDEYNIVKRDVPNMIVEECGCA", "modifications": "Inhibin beta B chain", "notes": "TGFβ receptor agonist"}, "B2": {"name": "activin A (protein, UniProt P08476 311-426, looked up)", "Inhibin beta A chain": "GLECDGKVNICCKKQFFVSFKDIGWNDWIIAPSGYHANYCEGECPSHIAGTSGSSLSFHSTVINHYRMRGHSPFANLKSCCVPTKLRPMSMLYYDDGQNIIKKDIQNMIVEECGCS", "modifications": "Inhibin beta A chain", "notes": "TGFβ receptor agonist (R&D Systems)"}, "B3": {"name": "TGFβ2 (protein, UniProt P61812 303-414, looked up)", "Transforming growth factor …": "ALDAAYCFRNVQDNCCLRPLYIDFKRDLGWKWIHEPKGYNANFCAGACPYLWSSDTQHSRVLSLYNTINPEASASPCCVSQDLEPLTILYYIGKTPKIEQLSNMIVKSCKCS", "notes": "TGFβ receptor agonist"}, "B4": {"name": "GDF-11 (protein, UniProt O95390 299-407, looked up)", "Growth/differentiation factor …": "NLGLDCDEHSSESRCCRYPLTVDFEAFGWDWIIAPKRYKANYCSGQCEYMFMQKYPHTHLVQQANPRGSAGPCCTPTKMSPINMLYFNDKQQIIYGKIPGMVVDRCGCS", "notes": "TGFβ receptor agonist"}}, "key": {"[1]": {"system": "human embryonic stem cell line H1", "test": "Real-time PCR of pancreatic markers at stage 3 day 4 (Example 1)", "format": "cell-based", "procedure": "Cultures were sampled in duplicate on stage 3 day 4, and analyzed for the expression of pancreatic markers using real-time PCR.\n(§1) Cells of the human embryonic stem cell line H1 were cultured on MATRIGEL-coated plates (1:30 dilution), and differentiated into pancreatic endocrine precursor cells using the following protocol: • a.\n(§2) Cultures were sampled in duplicate on stage 3 day 4, and analyzed for expression of pancreatic markers using real-time PCR. Cultures also were fixed in parallel for immunofluorescence analysis."}, "[2]": {"system": "human embryonic stem cell line H1", "test": "Immunofluorescence analysis of cultures at stage 3 day 4 (Example 1)", "format": "cell-based", "procedure": "as §1, §2"}, "[3]": {"system": "human embryonic stem cells line H1", "settings": "stage 4 day 3", "procedure": "(§3) Briefly, cells of the human embryonic stem cells line H1 were cultured on […]™ coated dishes (1:30 dilution) with RPMI medium+2% BSA+100 ng/ml activin A+20 ng/ml WNT-3a+8 ng/ml of bFGF for one day followed by treatment with RPMI media+2% BSA+100 ng/ml activin A+8 ng/ml of bFGF for an additional two days (Stage 1), then • a. DMEM/F12+2% BSA+50 ng/ml FGF7 for three days (Stage 2), then • b. DMEM-High glucose+1% B27+50 ng/ml FGF7+0.25 μM Cyclopamine-KAAD+2 μM Retinoic acid (RA)+100 ng/ml of Noggin+20 ng/ml Activin A for four days (Stage 3), then • c. DMEM-High glucose+1% B27+100 ng/ml Noggin+1 μM ALK5 inhibitor II for three days (Stage 4), or • d. DMEM-High glucose+1% B27 only for three days (Stage 4).\nPancreatic endocrine precursor cells express NGN3."}, "[4]": {"system": "human embryonic stem cells line H1", "settings": "stage 4; immunocytochemistry (FIG. 6)", "procedure": "as §3"}, "[5]": {"settings": "1 μM ALK5 inhibitor II + 100 ng/ml Noggin vs basal medium (FIG. 5)"}, "[6]": {"settings": "1 μM ALK5 inhibitor II + 100 ng/ml Noggin vs basal medium (FIG. 5 panel b)"}, "[7]": {"settings": "replacement of activin A in treatment 2, four days, stage 3 day 4 (FIG. 4)"}}, "data": [{"molecule": "Cc1cccc(-c2[nH]ncc2-c2ccc3ncccc3n2)n1", "note": "[Alk5 inhibitor II, ALK5 inhibitor II]", "values": [{"measurement": "PDX1 expression", "setting": "[1]; stage 3 day 4, 1 μM ALK5 inhibitor II added to treatment 1", "result": "No significant impact"}, {"measurement": "level of expression of NKX6.1", "setting": "[1]; stage 3 day 4, 1 μM ALK5 inhibitor II added to treatment 1, compared with treatment 1", "result": "decrease"}, {"measurement": "number of NGN3 expressing cells", "setting": "[2]; 1 μM ALK5 inhibitor II added to treatment 1 (Table 1, FIG. 2 panel f)", "result": "significantly increased"}, {"measurement": "NGN3 expression", "setting": "[3]; [5]", "result": "significant increase"}, {"measurement": "expression of NEUROD", "setting": "[3]; [5]", "result": "up regulation"}, {"measurement": "expression of NKX2.2", "setting": "[3]; [5]", "result": "up regulation"}, {"measurement": "expression of PAX4", "setting": "[3]; [5]", "result": "up regulation"}, {"measurement": "expression of PAX6", "setting": "[3]; [5]", "result": "up regulation"}, {"measurement": "expression of PTF1 alpha", "setting": "[3]; [5]", "result": "increase"}, {"measurement": "expression of NKX6.1", "setting": "[3]; [6]", "result": "did not appear to affect"}, {"measurement": "expression of PDX1", "setting": "[3]; [6]", "result": "did not appear to affect"}, {"measurement": "number of cells positive for NGN3 protein", "setting": "[4]", "result": "increase"}]}, {"molecule": "GDF-8", "values": [{"measurement": "PDX1 expression", "setting": "[1]; [7]", "result": "No significant impact"}, {"measurement": "expression of NGN3", "setting": "[1]; [7]", "result": "down-regulation"}, {"measurement": "expression of NKX6.1", "setting": "[1]; [7]", "result": "increase"}]}, {"molecule": "B1", "values": [{"measurement": "PDX1 expression", "setting": "[1]; [7]", "result": "No significant impact"}, {"measurement": "expression of NGN3", "setting": "[1]; [7]", "result": "down-regulation"}, {"measurement": "expression of NKX6.1", "setting": "[1]; [7]", "result": "increase"}]}, {"molecule": "B2", "values": [{"measurement": "NGN3 expression", "setting": "[1]; stage 3 day 4, 20 or 50 ng/ml activin A with FGF7, cyclopamine-KAAD, retinoic acid, Noggin (FIG. 1)", "result": "down-regulation"}, {"measurement": "NKX6.1 expression", "setting": "[1]; stage 3 day 4, 20 or 50 ng/ml activin A with FGF7, cyclopamine-KAAD, retinoic acid, Noggin, compared to cells receiving no activin A (FIG. 1)", "result": "dramatic increase"}, {"measurement": "expression of NGN3", "setting": "[2]; immunofluorescence (FIG. 2)", "result": "blocked the expression"}, {"measurement": "number of NKX6.1 expressing cells", "setting": "[2]; immunofluorescence (FIG. 2), 20 ng/ml activin A added to treatment 1", "result": "significantly increased"}]}, {"molecule": "B3", "values": [{"measurement": "PDX1 expression", "setting": "[1]; [7]", "result": "No significant impact"}, {"measurement": "expression of NGN3", "setting": "[1]; [7]", "result": "down-regulation"}, {"measurement": "expression of NKX6.1", "setting": "[1]; [7]", "result": "increase"}]}, {"molecule": "B4", "values": [{"measurement": "PDX1 expression", "setting": "[1]; [7]", "result": "No significant impact"}, {"measurement": "expression of NGN3", "setting": "[1]; [7]", "result": "down-regulation"}, {"measurement": "expression of NKX6.1", "setting": "[1]; [7]", "result": "increase"}]}]}
